Test system: T1, naringinase
T1 construct: gene naringinase alpha-L-rhamnosidase activity
Test: initial rates of naringin hydrolysis, Davis or DNS method, Lineweaver-Burk
Format: biochemical, Penicillium decumbens
Conditions: free enzyme; 0.1 M acetate buffer pH 4.0, 50 °C; naringin 0.5-20 mM; commercial enzyme complex
Excerpt: initial rates of naringin hydrolysis, Davis or DNS method, Lineweaver-Burk on naringinase

Km: 2560 µM
SMILES: C[C@@H]1O[C@@H](O[C@H]2[C@H](Oc3cc(O)c4c(c3)O[C@H](c3ccc(O)cc3)CC4=O)O[C@H](CO)[C@@H](O)[C@@H]2O)[C@H](O)[C@H](O)[C@H]1O [naringin]

Reference: article PMC6930494, “Immobilization of Naringinase from Penicillium decumbens on Chitosan Microspheres for Debittering Grapefruit Juice” (Molecules, 2019)
